Test results reported in ChEMBL document CHEMBL3259542, “Design, synthesis and pharmacological evaluation of novel polycyclic heteroarene ethers as PDE10A inhibitors: Part I” (Bioorg Med Chem Lett, 2014).
pIC50: −log10 of the molar value. One block for each molecule: values may come before it.

Assays:
[1] = target: T1, cAMP and cAMP-inhibited cGMP 3',5'-cyclic phosphodiesterase 10A (Homo sapiens, UniProt Q9Y233); assay: Inhibition of N-terminal GST-tagged human recombinant PDE10A assessed as substrate hydrolysis using [3H]cAMP as substrate after 30 mins by two-step radiometric assay
[2] = target: T1, cAMP and cAMP-inhibited cGMP 3',5'-cyclic phosphodiesterase 10A; assay: Inhibition of N-terminal GST-tagged human recombinant PDE10A assessed as substrate hydrolysis using [3H]cAMP as substrate at 1 uM after 30 mins by two-step radiometric assay
[3] = target: 3',5'-cyclic-AMP phosphodiesterase 4D (Homo sapiens) (UniProt Q08499); assay: Inhibition of N-terminal GST-tagged human recombinant PDE4D assessed as substrate hydrolysis using [3H]cAMP as substrate at 1 uM after 30 mins by two-step radiometric assay
[4] = target: Dual 3',5'-cyclic-AMP and -GMP phosphodiesterase 11A (Homo sapiens) (UniProt Q9HCR9); assay: Inhibition of N-terminal GST-tagged human recombinant PDE11A assessed as substrate hydrolysis using [3H]cAMP as substrate at 1 uM after 30 mins by two-step radiometric assay
[5] = Metabolic stability in rat liver microsomes assessed as compound remaining at 1 uM after 60 mins; assay type: ADME; details: read-out: Stability
[6] = Cmax in Sprague-Dawley rat at 5 mg/kg, po; assay type: ADME, organism-based; design: dose 5 mg/kg, route oral; details: in vivo
[7] = target: cGMP-dependent 3',5'-cyclic phosphodiesterase (Homo sapiens) (UniProt O00408); assay: Inhibition of N-terminal GST-tagged human recombinant PDE2A assessed as substrate hydrolysis using cAMP as substrate at 10 uM after 30 mins by homogenous time-resolved fluorescence method
[8] = Drug uptake in Sprague-Dawley rat brain at 5 mg/kg, po after 1 hr; assay type: ADME, organism-based; design: dose 5 mg/kg, route oral; details: read-out: Drug uptake
[9] = target: cGMP-inhibited 3',5'-cyclic phosphodiesterase 3A (Homo sapiens) (UniProt Q14432); assay: Inhibition of N-terminal GST-tagged human recombinant PDE3A assessed as substrate hydrolysis using cAMP as substrate at 1 uM after 30 mins by homogenous time-resolved fluorescence method
[10] = target: cGMP-specific 3',5'-cyclic phosphodiesterase (Homo sapiens) (UniProt O76074); assay: Inhibition of N-terminal GST-tagged human recombinant PDE5A assessed as substrate hydrolysis using [3H]cGMP as substrate at 1 uM after 30 mins by two-step radiometric assay
[11] = species on record: Homo sapiens; assay: Selectivity for human recombinant PDE10A over human recombinant PDE2A
[12] = Metabolic stability in human liver microsomes assessed as compound remaining at 1 uM after 60 mins; assay type: ADME; details: read-out: Stability
[13] = target: High affinity cGMP-specific 3',5'-cyclic phosphodiesterase 9A (Homo sapiens) (UniProt O76083); assay: Inhibition of N-terminal GST-tagged human recombinant PDE9A assessed as substrate hydrolysis using [3H]cGMP as substrate at 1 uM after 30 mins by two-step radiometric assay
[14] = AUC (0 to t) in Sprague-Dawley rat at 5 mg/kg, po; assay type: ADME, organism-based; design: dose 5 mg/kg, route oral; details: plasma
[15] = target: High affinity cAMP-specific and IBMX-insensitive 3',5'-cyclic phosphodiesterase 8A (Homo sapiens) (UniProt O60658); assay: Inhibition of N-terminal GST-tagged human recombinant PDE8A assessed as substrate hydrolysis using [3H]cAMP as substrate at 1 uM after 30 mins by two-step radiometric assay
[16] = target: Dual specificity calcium/calmodulin-dependent 3',5'-cyclic nucleotide phosphodiesterase 1A (Homo sapiens) (UniProt P54750); assay: Inhibition of N-terminal GST-tagged human recombinant PDE1A assessed as substrate hydrolysis using [3H]cAMP as substrate at 1 uM after 30 mins by two-step radiometric assay
[17] = target: High affinity 3',5'-cyclic-AMP phosphodiesterase 7A (Homo sapiens) (UniProt Q13946); assay: Inhibition of N-terminal GST-tagged human recombinant PDE7A assessed as substrate hydrolysis using [3H]cAMP as substrate at 1 uM after 30 mins by two-step radiometric assay
[18] = target: cGMP-dependent 3',5'-cyclic phosphodiesterase (Homo sapiens) (UniProt O00408); assay: Inhibition of N-terminal GST-tagged human recombinant PDE2A assessed as substrate hydrolysis using cAMP as substrate at 1 uM after 30 mins by homogenous time-resolved fluorescence method
[19] = Retention time of the compound by HPLC analysis; assay type: physicochemical
[20] = tested on: Liver microsome; assay: Drug level in rat liver microsomes treated with 9-Methyl-3-(2-{[3-(pyrimidin-5-yl)pyridin-2-yl]oxy}ethyl)-9H-pyrido[2,3-b]indole at 1 uM after 60 mins by LC-MS/MS analysis; assay type: ADME; details: 1 h
[21] = tested on: Liver microsome; assay: Metabolic stability in rat liver microsomes assessed as metabolite M7 (9-methyl-3-(2-(3-(pyrimidin-5-yl)pyridin-2-yloxy)vinyl)-9H-pyrido[2,3-b]indole) formation at 1 uM after 60 mins by LC-MS/MS analysis; assay type: ADME; details: 1 h
[22] = tested on: Liver microsome; assay: Metabolic stability in rat liver microsomes assessed as metabolite M6 (3-(2-(3-(pyrimidin-5-yl)pyridin-2-yloxy)ethyl)-9H-pyrido[2,3-b]indole) formation at 1 uM after 60 mins by LC-MS/MS analysis; assay type: ADME; details: 1 h
[23] = tested on: Liver microsome; assay: Metabolic stability in rat liver microsomes assessed as metabolite M2 (9-methyl-3-(2-(3-(pyrimidin-5-yl)pyridin-2-yloxy)vinyl)-9H-pyrido[2,3-b]indole 9-oxide) formation at 1 uM after 60 mins by LC-MS/MS analysis; assay type: ADME; details: 1 h
[24] = tested on: Liver microsome; assay: Metabolic stability in rat liver microsomes assessed as metabolite M5 (2-(2-(9-methyl-9H-pyrido[2,3-b]indol-3-yl)vinyloxy)-3-(pyrimidin-5-yl)pyridine 1-oxide) formation at 1 uM after 60 mins by LC-MS/MS analysis; assay type: ADME; details: 1 h
[25] = tested on: Liver microsome; assay: Metabolic stability in rat liver microsomes assessed as metabolite M1 (3-(2-(3-(pyrimidin-5-yl)pyridin-2-yloxy)ethyl)-9H-pyrido[23-b]indole 1-oxide) formation at 1 uM after 60 mins by LC-MS/MS analysis; assay type: ADME; details: 1 h
[26] = tested on: Liver microsome; assay: Metabolic stability in rat liver microsomes assessed as metabolite M3 (1-(9H-pyrido[2,3-b]indol-3-yl)-2-(3-(pyrimidin-5-yl)pyridin-2-yloxy)ethanol) formation at 1 uM after 60 mins by LC-MS/MS analysis; assay type: ADME; details: 1 h
[27] = tested on: Liver microsome; assay: Metabolic stability in rat liver microsomes assessed as metabolite M9 (9-methyl-3-(2-(3-(pyrimidin-5-yl)pyridin-2-yloxy)vinyl)-9H-pyrido[2,3-b]indole) formation at 1 uM after 60 mins by LC-MS/MS analysis; assay type: ADME; details: 1 h
[28] = tested on: Liver microsome; assay: Metabolic stability in rat liver microsomes assessed as metabolite M8 (1-(9-methyl-9H-pyrido[2,3-b]indol-3-yl)-2-(3-(pyrimidin-5-yl)pyridin-2-yloxy)ethanol) formation at 1 uM after 60 mins by LC-MS/MS analysis; assay type: ADME; details: 1 h
[29] = tested on: Liver microsome; assay: Metabolic stability in rat liver microsomes assessed as metabolite M4 (9-methyl-3-(2-(3-(pyrimidin-5-yl)pyridin-2-yloxy)vinyl)-9H-pyrido[2,3-b]indole 1-oxide) formation at 1 uM after 60 mins by LC-MS/MS analysis; assay type: ADME; details: 1 h

T1 sequence (Q9Y233 whole entry): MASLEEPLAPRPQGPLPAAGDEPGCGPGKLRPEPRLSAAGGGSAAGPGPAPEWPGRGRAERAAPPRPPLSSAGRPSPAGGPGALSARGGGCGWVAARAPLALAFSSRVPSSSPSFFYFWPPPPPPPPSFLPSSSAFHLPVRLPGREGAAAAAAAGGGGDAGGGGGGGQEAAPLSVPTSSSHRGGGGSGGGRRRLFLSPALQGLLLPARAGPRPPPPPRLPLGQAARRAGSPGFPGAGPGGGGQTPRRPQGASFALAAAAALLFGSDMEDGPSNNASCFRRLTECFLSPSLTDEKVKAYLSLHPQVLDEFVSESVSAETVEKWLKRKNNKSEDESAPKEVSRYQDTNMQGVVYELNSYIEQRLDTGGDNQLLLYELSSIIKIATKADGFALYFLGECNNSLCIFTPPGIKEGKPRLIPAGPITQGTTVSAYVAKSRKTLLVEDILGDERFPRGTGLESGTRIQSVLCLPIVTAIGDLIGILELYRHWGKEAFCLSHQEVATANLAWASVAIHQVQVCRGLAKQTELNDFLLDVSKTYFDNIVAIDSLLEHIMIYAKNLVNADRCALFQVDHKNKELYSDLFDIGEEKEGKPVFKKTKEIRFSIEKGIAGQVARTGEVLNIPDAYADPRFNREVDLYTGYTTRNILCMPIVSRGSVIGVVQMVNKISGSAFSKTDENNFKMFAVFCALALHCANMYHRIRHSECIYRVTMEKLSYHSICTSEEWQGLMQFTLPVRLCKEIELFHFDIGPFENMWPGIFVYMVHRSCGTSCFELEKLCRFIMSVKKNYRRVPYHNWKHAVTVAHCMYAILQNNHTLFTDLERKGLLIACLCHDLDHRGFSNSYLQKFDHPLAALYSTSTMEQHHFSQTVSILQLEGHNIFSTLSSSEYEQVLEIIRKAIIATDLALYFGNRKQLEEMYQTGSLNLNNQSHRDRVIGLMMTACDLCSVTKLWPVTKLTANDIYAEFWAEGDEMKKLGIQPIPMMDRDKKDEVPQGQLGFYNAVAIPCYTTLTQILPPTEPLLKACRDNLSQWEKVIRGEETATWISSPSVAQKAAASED
High affinity 3',5'-cyclic-AMP phosphodiesterase 7A (Homo sapiens), sequence (Q13946 whole entry): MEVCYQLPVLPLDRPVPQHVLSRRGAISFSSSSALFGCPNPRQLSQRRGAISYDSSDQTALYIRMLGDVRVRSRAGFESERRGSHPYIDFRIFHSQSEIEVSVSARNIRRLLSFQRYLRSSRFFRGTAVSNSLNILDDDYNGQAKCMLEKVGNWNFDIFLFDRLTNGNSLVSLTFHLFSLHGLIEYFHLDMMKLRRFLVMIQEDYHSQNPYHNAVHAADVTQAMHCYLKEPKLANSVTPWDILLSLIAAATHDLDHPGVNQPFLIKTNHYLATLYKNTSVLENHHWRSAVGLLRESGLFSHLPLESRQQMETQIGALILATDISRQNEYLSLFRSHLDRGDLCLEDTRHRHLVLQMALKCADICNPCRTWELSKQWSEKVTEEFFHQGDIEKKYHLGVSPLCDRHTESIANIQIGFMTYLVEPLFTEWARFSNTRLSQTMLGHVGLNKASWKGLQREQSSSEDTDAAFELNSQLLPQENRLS
High affinity cGMP-specific 3',5'-cyclic phosphodiesterase 9A (Homo sapiens), sequence (O76083 whole entry): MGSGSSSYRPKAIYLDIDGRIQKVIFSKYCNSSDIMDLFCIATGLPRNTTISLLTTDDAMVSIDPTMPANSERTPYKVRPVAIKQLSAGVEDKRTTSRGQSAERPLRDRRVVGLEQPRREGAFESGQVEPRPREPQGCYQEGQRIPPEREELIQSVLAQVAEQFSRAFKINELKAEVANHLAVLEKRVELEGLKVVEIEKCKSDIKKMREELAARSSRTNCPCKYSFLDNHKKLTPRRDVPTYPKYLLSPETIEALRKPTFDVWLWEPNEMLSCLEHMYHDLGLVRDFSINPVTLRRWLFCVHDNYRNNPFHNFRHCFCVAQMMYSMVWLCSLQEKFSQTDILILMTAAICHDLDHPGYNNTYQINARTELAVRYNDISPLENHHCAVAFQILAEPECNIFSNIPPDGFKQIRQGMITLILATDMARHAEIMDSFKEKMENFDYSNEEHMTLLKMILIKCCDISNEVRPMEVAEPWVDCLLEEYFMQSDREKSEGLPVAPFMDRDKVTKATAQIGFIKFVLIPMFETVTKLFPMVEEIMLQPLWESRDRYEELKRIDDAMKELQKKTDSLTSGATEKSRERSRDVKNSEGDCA
cGMP-inhibited 3',5'-cyclic phosphodiesterase 3A (Homo sapiens), sequence (Q14432 whole entry): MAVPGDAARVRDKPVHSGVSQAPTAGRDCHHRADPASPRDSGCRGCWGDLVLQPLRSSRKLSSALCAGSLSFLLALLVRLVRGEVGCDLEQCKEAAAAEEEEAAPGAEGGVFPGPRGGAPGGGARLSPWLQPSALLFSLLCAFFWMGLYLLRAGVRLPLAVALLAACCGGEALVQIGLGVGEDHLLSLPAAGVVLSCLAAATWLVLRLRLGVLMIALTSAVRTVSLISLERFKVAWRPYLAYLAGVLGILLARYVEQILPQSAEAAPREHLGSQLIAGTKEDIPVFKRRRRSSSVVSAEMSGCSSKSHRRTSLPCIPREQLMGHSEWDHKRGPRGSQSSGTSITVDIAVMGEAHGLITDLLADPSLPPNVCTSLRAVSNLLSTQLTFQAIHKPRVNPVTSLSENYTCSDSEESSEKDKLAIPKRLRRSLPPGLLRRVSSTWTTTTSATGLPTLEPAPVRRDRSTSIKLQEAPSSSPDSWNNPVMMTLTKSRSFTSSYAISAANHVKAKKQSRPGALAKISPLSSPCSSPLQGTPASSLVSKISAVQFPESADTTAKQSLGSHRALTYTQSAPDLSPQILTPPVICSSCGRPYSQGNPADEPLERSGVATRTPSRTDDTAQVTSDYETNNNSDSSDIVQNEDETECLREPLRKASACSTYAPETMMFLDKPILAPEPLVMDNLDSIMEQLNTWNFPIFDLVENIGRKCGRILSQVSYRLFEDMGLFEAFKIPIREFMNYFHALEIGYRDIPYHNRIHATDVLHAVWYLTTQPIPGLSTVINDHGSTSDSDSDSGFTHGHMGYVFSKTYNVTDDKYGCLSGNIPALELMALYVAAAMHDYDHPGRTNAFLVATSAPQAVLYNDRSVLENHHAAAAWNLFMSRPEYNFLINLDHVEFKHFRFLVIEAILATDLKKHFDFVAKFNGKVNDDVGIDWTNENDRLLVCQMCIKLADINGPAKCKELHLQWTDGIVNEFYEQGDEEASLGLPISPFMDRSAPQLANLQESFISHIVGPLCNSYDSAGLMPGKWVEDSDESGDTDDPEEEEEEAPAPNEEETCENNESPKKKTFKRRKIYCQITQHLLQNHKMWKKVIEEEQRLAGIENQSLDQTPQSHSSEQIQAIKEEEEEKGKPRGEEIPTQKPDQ
Dual 3',5'-cyclic-AMP and -GMP phosphodiesterase 11A (Homo sapiens), sequence (Q9HCR9 whole entry, looked up): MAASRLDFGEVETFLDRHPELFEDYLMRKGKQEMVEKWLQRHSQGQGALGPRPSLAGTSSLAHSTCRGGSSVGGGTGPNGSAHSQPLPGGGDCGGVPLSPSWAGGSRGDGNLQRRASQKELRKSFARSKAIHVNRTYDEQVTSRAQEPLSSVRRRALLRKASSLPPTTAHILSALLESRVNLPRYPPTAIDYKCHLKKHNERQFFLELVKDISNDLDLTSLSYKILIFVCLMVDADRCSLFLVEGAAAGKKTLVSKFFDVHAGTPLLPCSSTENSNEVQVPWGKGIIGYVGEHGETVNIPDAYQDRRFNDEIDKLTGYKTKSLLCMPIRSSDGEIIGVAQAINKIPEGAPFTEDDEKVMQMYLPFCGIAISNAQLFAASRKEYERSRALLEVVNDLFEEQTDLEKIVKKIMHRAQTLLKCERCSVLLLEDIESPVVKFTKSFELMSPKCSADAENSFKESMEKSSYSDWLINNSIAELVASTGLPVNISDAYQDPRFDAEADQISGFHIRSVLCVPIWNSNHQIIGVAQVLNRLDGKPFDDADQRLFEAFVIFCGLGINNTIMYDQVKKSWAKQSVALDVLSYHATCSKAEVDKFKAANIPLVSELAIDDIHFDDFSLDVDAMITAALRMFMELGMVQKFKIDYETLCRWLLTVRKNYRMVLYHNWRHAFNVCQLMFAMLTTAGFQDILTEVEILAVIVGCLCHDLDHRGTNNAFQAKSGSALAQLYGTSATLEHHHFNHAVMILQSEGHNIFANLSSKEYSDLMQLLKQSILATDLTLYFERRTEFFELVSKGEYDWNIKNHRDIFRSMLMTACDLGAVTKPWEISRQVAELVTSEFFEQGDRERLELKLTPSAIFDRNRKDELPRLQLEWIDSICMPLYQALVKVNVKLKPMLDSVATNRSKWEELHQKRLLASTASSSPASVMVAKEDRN
Dual specificity calcium/calmodulin-dependent 3',5'-cyclic nucleotide phosphodiesterase 1A (Homo sapiens), sequence (P54750 whole entry): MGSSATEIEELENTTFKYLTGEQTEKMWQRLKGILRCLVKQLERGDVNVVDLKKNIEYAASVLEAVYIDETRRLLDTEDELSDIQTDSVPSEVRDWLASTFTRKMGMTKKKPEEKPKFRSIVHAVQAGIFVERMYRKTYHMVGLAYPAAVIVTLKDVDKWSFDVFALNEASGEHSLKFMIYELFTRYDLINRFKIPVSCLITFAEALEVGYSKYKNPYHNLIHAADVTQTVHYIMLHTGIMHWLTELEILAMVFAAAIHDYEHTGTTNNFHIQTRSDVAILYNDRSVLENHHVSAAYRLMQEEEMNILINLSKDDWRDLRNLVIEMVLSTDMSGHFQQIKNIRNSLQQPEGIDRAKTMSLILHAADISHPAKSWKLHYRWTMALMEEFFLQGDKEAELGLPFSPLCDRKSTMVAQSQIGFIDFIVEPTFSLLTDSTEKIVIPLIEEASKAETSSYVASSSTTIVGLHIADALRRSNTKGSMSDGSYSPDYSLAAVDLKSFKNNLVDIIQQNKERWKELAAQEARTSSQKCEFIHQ

Compound: FC(F)(F)Cn1cc(-c2ccncc2)c(-c2ccc(OCc3ccc4ccccc4n3)cc2)n1
pIC50 [1]: 8.85

Compound: Cn1c2ccccc2c2cc(CCOc3nccnc3-c3cncnc3)cnc21
inhibition [2]: 83.4%
pIC50 [1]: 7.17

Compound: Cn1c2ccccc2c2cc(CCOc3nccnc3-c3ccc(F)cc3)cnc21
inhibition [3]: 0.7%
inhibition [4]: 18.6%
remaining at 1 h, 1 µM [5]: 3.19%
Cmax [6]: 103 ng/mL
inhibition [2]: 85.4%
inhibition [7]: 60%
concentration at 1 h [8]: < 5.4 ng/mL
inhibition [9]: 0.1%
inhibition [10]: 5.9%
Selectivity ratio [11]: 100
remaining at 1 h, 1 µM [12]: 9.92%
inhibition [13]: 1.6%
AUC(0-t) [14]: 190 ng·h/mL
inhibition [15]: 0%
inhibition [16]: 13.5%
inhibition [17]: 18.3%
pIC50 [1]: 7.38
inhibition [18]: 11.9%

Compound: Cn1c2ccccc2c2cc(/C=C/Oc3ncccc3-c3cncnc3)c[n+]([O-])c21
Retention_time [19]: 9.23 min
Drug metabolism [20]: metabolite_detected

Compound: Cn1c2ccccc2c2cc(CCOc3ncccc3-c3ccncc3)cnc21
inhibition [3]: 0.6%
inhibition [4]: 17.4%
remaining at 1 h, 1 µM [5]: 0.77%
inhibition [2]: 95.8%
inhibition [7]: 60%
inhibition [9]: 0%
inhibition [10]: 36.5%
Selectivity ratio [11]: 100
remaining at 1 h, 1 µM [12]: 0.63%
inhibition [13]: 1.3%
inhibition [15]: 11.2%
inhibition [16]: 40.9%
inhibition [17]: 40.5%
pIC50 [1]: 7.98
inhibition [18]: 41.4%

Compound: Cn1c2ccccc2c2cc(COc3nccnc3-c3cncnc3)cnc21
inhibition [2]: 10.9%

Compound: Cn1c2ccccc2c2cc(CCOc3nccnc3-c3ccncc3)cnc21
inhibition [3]: 11.9%
inhibition [4]: 21.7%
remaining at 1 h, 1 µM [5]: 1.03%
inhibition [2]: 97.2%
inhibition [7]: 60%
inhibition [9]: 0.2%
inhibition [10]: 13.6%
Selectivity ratio [11]: 100
remaining at 1 h, 1 µM [12]: 0.72%
inhibition [13]: 4.3%
inhibition [15]: 2%
inhibition [16]: 30.1%
inhibition [17]: 27%
pIC50 [1]: 7.95
inhibition [18]: 34.5%

Compound: Cn1c2ccccc2c2cc(CCCOc3ncccc3-c3cccnc3F)cnc21
inhibition [2]: 48.9%
pIC50 [1]: 5.23

Compound: Cn1c2ccccc2c2cc(COc3nccc(-c4cncnc4)n3)cnc21
inhibition [2]: 23.6%

Compound: Cn1c2ccccc2c2cc(CCOc3ncccc3-c3ccc(F)cc3)cnc21
inhibition [2]: 88.5%
pIC50 [1]: 7.16

Compound: Cn1c2ccccc2c2cc(COc3nccc(-c4ccc(F)cc4)n3)cnc21
inhibition [2]: 23.9%

Compound: Cn1c2ccccc2c2cc(CCOc3nccnc3-c3ccc(Cl)cc3)cnc21
inhibition [2]: 87.2%
pIC50 [1]: 6.73

Compound: Cn1c2ccccc2c2cc(/C=C/Oc3c(-c4cncnc4)ccc[n+]3[O-])cnc21
Retention_time [19]: 9.69 min
Drug metabolism [20]: metabolite_detected

Compound: Cn1c2ccccc2c2cc(CCOc3ncccc3-c3ccc(Cl)cc3)cnc21
inhibition [2]: 75.7%
pIC50 [1]: 6.23

Compound: Cn1c2ccccc2c2cc(CCCOc3ncccc3N3CCOCC3)cnc21
inhibition [2]: 19.1%

Next, values leading:

Retention_time [19]: 11.55 min
Drug metabolism [20]: metabolite_detected
Compound: Cn1c2ccccc2c2cc(C(O)COc3ncccc3-c3cncnc3)cnc21 (centres undefined)

inhibition [2]: 24.6%
Compound: Cn1cc(COc2ncccc2-c2ccncc2)c2nc3ccccc3cc21

inhibition [2]: 30.7%
Compound: Cn1cc(COc2ncccc2-c2cncnc2)c2nc3ccccc3cc21

Retention_time [19]: 8.64 min
Drug metabolism [20]: metabolite_detected
Compound: C[N+]1([O-])c2ccccc2-c2cc(/C=C/Oc3ncccc3-c3cncnc3)cnc21 (centres undefined)

Retention_time [19]: 9.06 min
Drug metabolism [20]: metabolite_detected
Compound: OC(COc1ncccc1-c1cncnc1)c1cnc2[nH]c3ccccc3c2c1 (centres undefined)

Retention_time [19]: 10.86 min
Drug metabolism [20]: metabolite_detected
Compound: c1cnc(OCCc2cnc3[nH]c4ccccc4c3c2)c(-c2cncnc2)c1

Retention_time [19]: 6.78 min
Drug metabolism [20]: metabolite_detected
Compound: [O-][n+]1cc(CCOc2ncccc2-c2cncnc2)cc2c3ccccc3[nH]c21

Retention_time [19]: 10.86 min
Drug metabolism [20]: metabolite_detected
Compound: Cn1c2ccccc2c2cc(/C=C\Oc3ncccc3-c3cncnc3)cnc21

remaining at 1 h, 1 µM [5]: 17.5%
inhibition [2]: 54.7%
remaining at 1 h, 1 µM [12]: 19.6%
pIC50 [1]: 6.01
Compound: Cn1c2ccccc2c2cc(C3(COc4ncccc4-c4cncnc4)CC3)cnc21

remaining at 1 h, 1 µM [5]: 0.27%
inhibition [2]: 82.1%
remaining at 1 h, 1 µM [12]: 0.11%
pIC50 [1]: 6.91
Compound: Cn1cc(CCOc2nccnc2-c2cncnc2)c2nc3ccccc3cc21

inhibition [2]: 43.1%
pIC50 [1]: 5.49
Compound: Cn1c2ccccc2c2cc(CCCOc3ncccc3-c3cncnc3)cnc21

Retention_time [19]: 11.81 min
Drug metabolism [20]: metabolite_detected
Compound: Cn1c2ccccc2c2cc(/C=C/Oc3ncccc3-c3cncnc3)cnc21

inhibition [2]: 12.1%
Compound: Cn1cc(COc2nccc(-c3ccc(F)cc3)n2)c2nc3ccccc3cc21

inhibition [3]: 25.8%
Retention_time [19]: 14.51 min
inhibition [4]: 12.4%
remaining at 1 h, 1 µM [5]: 1.93%
Drug metabolism [21]: metabolite_detected
inhibition [2]: 92.5%
inhibition [7]: 60%
Drug metabolism [22]: metabolite_detected
inhibition [9]: 0%
inhibition [10]: 23.9%
Selectivity ratio [11]: 100
Drug metabolism [23]: metabolite_detected
Drug metabolism [24]: metabolite_detected
Drug metabolism [25]: metabolite_detected
remaining at 1 h, 1 µM [12]: 0.45%
Drug metabolism [26]: metabolite_detected
inhibition [13]: 9.8%
inhibition [15]: 0%
Drug metabolism [27]: metabolite_detected
inhibition [16]: 10.7%
inhibition [17]: 20.7%
Drug metabolism [28]: metabolite_detected
pIC50 [1]: 7.62
Drug metabolism [29]: metabolite_detected
inhibition [18]: 67.2%
Compound: Cn1c2ccccc2c2cc(CCOc3ncccc3-c3cncnc3)cnc21

inhibition [3]: 3.8%
inhibition [4]: 15.8%
remaining at 1 h, 1 µM [5]: 41.2%
inhibition [2]: 96.3%
inhibition [7]: 60%
inhibition [9]: 0.4%
inhibition [10]: 16.7%
Selectivity ratio [11]: 100
remaining at 1 h, 1 µM [12]: 51.1%
inhibition [13]: 5.3%
inhibition [15]: 2.1%
inhibition [16]: 14%
inhibition [17]: 20.8%
pIC50 [1]: 7.48
inhibition [18]: 40.6%
Compound: FC(F)n1c2ccccc2c2cc(CCOc3ncccc3-c3cncnc3)cnc21
